Reference: PubChem BioAssay AID256 (DTP/NCI, 2004)
Where “and” joins values, the source holds several entries; their conditions need not be identical. Equal values may be shown once. Inconclusive results and toxic doses are left out. The calls were made as follows: active = survival T/C of 150% or more; inactive = T/C below 125% in these data.

Test system: CD2F1 mice, L1210 leukemia ip, survival T/C
Assay: NCI In Vivo Anticancer Drug Screen. Data for tumor model L1210 Leukemia (intraperitoneal) in CD2F1 (CDF1) mice
Settings: endpoint: mean survival time, schedule: Q01DX009 (ip), vehicle: water, higher = longer survival
How it was run: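 Transplantable tumor in mice; compound-treated vs vehicle-treated groups. Read-out = treated/control ratio of the measured endpoint.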

Measured: T/C

COc1ccc(-c2csc(=[N+]3CCCCC3)s2)cc1
inactive: dose: 1.56 mg/kg/injection 94 % of control and 102 % of control | dose: 3.12 mg/kg/injection 96 % of control and 102 % of control | dose: 6.25 mg/kg/injection 96 % of control and 98 % of control | dose: 12.5 mg/kg/injection 98 % of control and 106 % of control | dose: 25.0 mg/kg/injection 113 % of control and 109 % of control
